Structures are written as SMILES. pIC50: −log10 of the molar value.

The target in one assay is Escherichia coli DNA gyrase A/B tetramer (Escherichia coli (strain K12), UniProt P0AES4+P0AES6). Nature of the assay: DNA gyrase supercoiling activity fluorescence polarisation assay. It counts as biochemical.
Conditions: not given
The protocol:
DNA Gyrase Supercoiling Activity Fluorescence Polarisation Assay
The supercoiling reactions may be quenched by the addition of 10 microliters/well of 40 nM oligodeoxynucleotide probe in 3× triplex-forming buffer consisting of 150 mM NaCl, and 150 mM sodium acetate at pH 3.5. The oligodeoxynucleotide probe may be 5′-BODIPY-FL-labeled […]. After 60 minutes, the fluorescence anisotropy of the BODIPY-FL may be measured in a Tecan Ultra plate reader, using 485 nm excitation and 535 nm emission filters equipped with polarizers. The IC50 may be determined by nonlinear regression using two control reactions. The first contains no test compound but 0.8% DMSO (100% activity) while the second control reaction contains 5 μM Ciprofloxacin and 0.8% DMSO (0% activity).
For orientation: Fluorescence polarisation rises when a labelled molecule tumbles more slowly, as on binding a larger partner.
In general, pIC50 refers to the negative decadic logarithm of the IC50, by convention in mol/L. On to `C[C@@H]1CN2c3c(cc4c(N5CCCCC5)noc4c3F)CC3(C(=O)NC(=O)NC3=O)[C@H]2[C@H](C)O1` (relative stereo) [Example 21], for which the negative logarithm of the IC50 (pIC50) was 5.62.

Staying with this assay, now noted: 5 nM enzyme, relaxed plasmid, 0.3 mM ATP, ambient temperature; read-out: E. coli DNA gyrase supercoiling IC50.
With `C[C@@H]1CN2c3c(cc4c(C5CC5)noc4c3F)CC3(C(=O)NC(=O)NC3=O)[C@H]2[C@H](C)O1` (relative stereo) [Example 4, (2R,4S,4aS)-rel-8-cyclopropyl-11-fluoro-2,4-dimethyl-1,2,4,4a-tetrahydro-2′H,6H-spiro[isoxazolo[4,5-g][1,4]oxazino[4,3-a]quinoline-5,5′-pyrimidine]-2′,4′,6′(1′H,3′H)-trione], the pIC50 is 6.52.

Regarding `C[C@@H]1CN2c3c(cc4c(-c5ccccn5)noc4c3F)CC3(C(=O)NC(=O)NC3=O)[C@H]2[C@H](C)O1` (relative stereo) [Example 5, (2R,4S,4aS)-rel-11-fluoro-2,4-dimethyl-8-pyridin-2-yl-1,2,4,4a-tetrahydro-2′H,6H-spiro[isoxazolo[4,5-g][1,4]oxazino[4,3-a]quinoline-5,5′-pyrimidine]-2′,4′,6′(1′H,3′H)-trione], the pIC50 is 6.70.

Take `CC(=O)Nc1noc2c(F)c3c(cc12)CC1(C(=O)NC(=O)NC1=O)[C@H]1[C@H](C)O[C@H](C)CN31` (relative stereo) [Example 6, N-[(2R,4S,4aS)-rel-11-fluoro-2,4-dimethyl-2′,4′,6′-trioxo-1,1′,2,3′,4,4′,4a,6′-octahydro-2′H,6H-spiro[isoxazolo[4,5-g][1,4]oxazino[4,3-a]quinoline-5,5′-pyrimidin]-8-yl]acetamide]: the pIC50 is 6.10.

Take `Cc1noc2c(Cl)c3c(cc12)CC1(C(=O)NC(=O)NC1=O)[C@H]1[C@H](C)O[C@H](C)CN31` (relative stereo) [Example 7, (2R,4S,4aS)-rel-11-chloro-2,4,8-trimethyl-1,2,4,4a-tetrahydro-2′H,6H-spiro[1,4-oxazino[4,3-a][1,2]oxazolo[4,5-g]quinoline-5,5′-pyrimidine]-2′,4′,6′(1′H,3′H)-trione]: the negative logarithm of the IC50 (pIC50) was 6.40.

For the compound `CC(=O)N1CCN(c2noc3c(F)c4c(cc23)CC2(C(=O)NC(=O)NC2=O)[C@H]2[C@H](C)O[C@H](C)CN42)CC1` (relative stereo) [Example 8, (2R,4S,4aS)-rel-8-(4-acetylpiperazin-1-yl)-11-fluoro-2,4-dimethyl-1,2,4,4a-tetrahydro-2′H,6H-spiro[isoxazolo[4,5-g][1,4]oxazino[4,3-a]quinoline-5,5′-pyrimidine]-2′,4′,6′(1′H,3′H)-trione], the pIC50 was 5.08.

As to `C[C@@H]1CN2c3c(cc4c(NCc5nccs5)noc4c3F)CC3(C(=O)NC(=O)NC3=O)[C@H]2[C@H](C)O1` (relative stereo) [Example 10, (2R,4S,4aS)-rel-11-fluoro-2,4-dimethyl-8-[(1,3-thiazol-2-ylmethyl)amino]-1,2,4,4a-tetrahydro-2′H,6H-spiro[1,4-oxazino[4,3-a][1,2]oxazolo[4,5-g]quinoline-5,5′-pyrimidine]-2′,4′,6′(1′H,3′H)-trione], the pIC50 was 5.72.

`C[C@@H]1CN2c3c(cc4c(NCc5c[nH]cn5)noc4c3F)CC3(C(=O)NC(=O)NC3=O)[C@H]2[C@H](C)O1` (relative stereo) [Example 11, (2R,4S,4aS)-rel-11-fluoro-8-[(1H-imidazol-4-ylmethyl)amino]-2,4-dimethyl-1,2,4,4a-tetrahydro-2′H,6H-spiro[1,4-oxazino[4,3-a][1,2]oxazolo[4,5-g]quinoline-5,5′-pyrimidine]-2′,4′,6′(1′H,3′H)-trione]: the pIC50 is 6.10.

Turning to `C[C@@H]1CN2c3c(cc4c(NCc5cnn(C)c5)noc4c3F)CC3(C(=O)NC(=O)NC3=O)[C@H]2[C@H](C)O1` (relative stereo) [Example 12, (2R,4S,4aS)-rel-11-fluoro-2,4-dimethyl-8-{[(1-methyl-1H-pyrazol-4-yl)methyl]amino}-1,2,4,4a-tetrahydro-2′H,6H-spiro[1,4-oxazino[4,3-a][1,2]oxazolo[4,5-g]quinoline-5,5′-pyrimidine]-2′,4′,6′(1′H,3′H)-trione], the pIC50 was 5.92.

For `Cc1cc(CNc2noc3c(F)c4c(cc23)CC2(C(=O)NC(=O)NC2=O)[C@H]2[C@H](C)O[C@H](C)CN42)no1` (relative stereo) [Example 13, (2R,4S,4aS)-rel-11-fluoro-2,4-dimethyl-8-{[(5-methyl-1,2-oxazol-3-yl)methyl]amino}-1,2,4,4a-tetrahydro-2′H,6H-spiro[1,4-oxazino[4,3-a][1,2]oxazolo[4,5-g]quinoline-5,5′-pyrimidine]-2′,4′,6′(1′H,3′H)-trione], the pIC50 is 5.77.

For the compound `C[C@@H]1CN2c3c(cc4c(NCc5cccnc5)noc4c3F)CC3(C(=O)NC(=O)NC3=O)[C@H]2[C@H](C)O1` (relative stereo) [Example 15, (2R,4S,4aS)-rel-11-fluoro-2,4-dimethyl-8-[(pyridin-3-ylmethyl)amino]-1,2,4,4a-tetrahydro-2′H,6H-spiro[1,4-oxazino[4,3-a][1,2]oxazolo[4,5-g]quinoline-5,5′-pyrimidine]-2′,4′,6′(1′H,3′H)-trione], the pIC50 is 6.00.

In the case of `C[C@@H]1CN2c3c(cc4c(NCc5ccncc5)noc4c3F)CC3(C(=O)NC(=O)NC3=O)[C@H]2[C@H](C)O1` (relative stereo) [Example 16, (2R,4S,4aS)-rel-11-fluoro-2,4-dimethyl-8-[(pyridin-4-ylmethyl)amino]-1,2,4,4a-tetrahydro-2′H,6H-spiro[1,4-oxazino[4,3-a][1,2]oxazolo[4,5-g]quinoline-5,5′-pyrimidine]-2′,4′,6′(1′H,3′H)-trione], the pIC50 was 5.62.

As to `C[C@@H]1CN2c3c(cc4c(NCC5CC5)noc4c3F)CC3(C(=O)NC(=O)NC3=O)[C@H]2[C@H](C)O1` (relative stereo) [Example 17, (2R,4S,4aS)-rel-8-[(cyclopropylmethyl)amino]-11-fluoro-2,4-dimethyl-1,2,4,4a-tetrahydro-2′H,6H-spiro[1,4-oxazino[4,3-a][1,2]oxazolo[4,5-g]quinoline-5,5′-pyrimidine]-2′,4′,6′(1′H,3′H)-trione], the pIC50 is 5.85.

In the case of `C[C@@H]1CN2c3c(cc4c(NCC5CCCCC5)noc4c3F)CC3(C(=O)NC(=O)NC3=O)[C@H]2[C@H](C)O1` (relative stereo) [Example 18, (2R,4S,4aS)-rel-8-[(cyclohexylmethyl)amino]-11-fluoro-2,4-dimethyl-1,2,4,4a-tetrahydro-2′H,6H-spiro[1,4-oxazino[4,3-a][1,2]oxazolo[4,5-g]quinoline-5,5′-pyrimidine]-2′,4′,6′(1′H,3′H)-trione], the pIC50 is 5.54.

With `C[C@@H]1CN2c3c(cc4c(NCC5CCOCC5)noc4c3F)CC3(C(=O)NC(=O)NC3=O)[C@H]2[C@H](C)O1` (relative stereo) [Example 19, (2R,4S,4aS)-rel-11-fluoro-2,4-dimethyl-8-[(tetrahydro-2H-pyran-4-ylmethyl)amino]-1,2,4,4a-tetrahydro-2′H,6H-spiro[1,4-oxazino[4,3-a][1,2]oxazolo[4,5-]quinoline-5,5′-pyrimidine]-2′,4′,6′(1′H,3′H)-trione], the pIC50 was 5.54.

For the compound `C[C@@H]1CN2c3c(cc4c(N5CCN(C(=O)OC(C)(C)C)CC5)noc4c3F)CC3(C(=O)NC(=O)NC3=O)[C@H]2[C@H](C)O1` (relative stereo) [Example 20, tert-butyl 4-[(2R,4S,4aS)-rel-11-fluoro-2,4-dimethyl-2′,4′,6′-trioxo-1,1′,2,3′,4,4′,4a,6′-octahydro-2′H,6H-spiro[isoxazolo[4,5-g][1,4]oxazino[4,3-a]quinoline-5,5′-pyrimidin]-8-yl]piperazine-1-carboxylate], the pIC50 was 4.70.

For the compound `C[C@@H]1CN2c3c(cc4c(N5CCOCC5)noc4c3F)CC3(C(=O)NC(=O)NC3=O)[C@H]2[C@H](C)O1` (relative stereo) [Example 22, (2R,4S,4aS)-rel-11-fluoro-2,4-dimethyl-8-(morpholin-4-yl)-1,2,4,4a-tetrahydro-2′H,6H-spiro[isoxazolo[4,5-g][1,4]oxazino[4,3-a]quinoline-5,5′-pyrimidine]-2′,4′,6′(1′H,3′H)-trione], the pIC50 was 5.59.

For the compound `CCN(CC)c1noc2c(F)c3c(cc12)CC1(C(=O)NC(=O)NC1=O)[C@H]1[C@H](C)O[C@H](C)CN31` (relative stereo) [Example 23, (2R,4S,4aS)-rel-8-(diethylamino)-11-fluoro-2,4-dimethyl-1,2,4,4a-tetrahydro-2′H,6H-spiro[isoxazolo[4,5-g][1,4]oxazino[4,3-a]quinoline-5,5′-pyrimidine]-2′,4′,6′(1′H,3′H)-trione], the pIC50 is 5.37.

`C[C@@H]1CN2c3c(cc4c(N(C)C)noc4c3F)CC3(C(=O)NC(=O)NC3=O)[C@H]2[C@H](C)O1` (relative stereo) [Example 24, (2R,4S,4aS)-rel-8-(dimethylamino)-11-fluoro-2,4-dimethyl-1,2,4,4a-tetrahydro-2′H,6H-spiro[isoxazolo[4,5-g][1,4]oxazino[4,3-a]quinoline-5,5′-pyrimidine]-2′,4′,6′(1′H,3′H)-trione]: the pIC50 was 6.52.

As to `C[C@@H]1CN2c3c(cc4c(N5CCCC5)noc4c3F)CC3(C(=O)NC(=O)NC3=O)[C@H]2[C@H](C)O1` (relative stereo) [Example 25, (2R,4S,4aS)-rel-11-fluoro-2,4-dimethyl-8-(pyrrolidin-1-yl)-1,2,4,4a-tetrahydro-2′H,6H-spiro[isoxazolo[4,5-g][1,4]oxazino[4,3-a]quinoline-5,5′-pyrimidine]-2′,4′,6′(1′H,3′H)-trione], the negative logarithm of the IC50 (pIC50) is 5.82.

The values are drawn from US9040528B2, “Chemical compounds 542” (AstraZeneca AB, priority 2008, dated 2015).
